Where two headings read alike, the source gives them in different places. Peptide text beside a SMILES is read from it. * marks the point of attachment. X2 = O=C1OC2(C(=O)*)C3C4CC5C6C4C2C6C1(O)C53; X1 = O=C1NC2(N*)C3C4CC5C6C4C2C6C1(O)C53
Legend:
[1] = biological target: T1, wild type C-South African (C-SA) HIV-1 protease (Human immunodeficiency virus type 1 group M subtype B, UniProt P12497, H557K/I503V/I581L/L507I/L577M/M524I/R529K/T500S); test: in vitro HIV-1 protease inhibition (C-SA PR); type: biochemical, HIV-1 subtype C
T1 construct: Over-expression, extraction and purification of the C-SA protease and in vitro HIV-1 protease activity were reported in our earlier publications; made in house
Source text: Over-expression, extraction and purification of the C-SA protease and in vitro HIV-1 protease activity were reported in our earlier publications. Genetic diversity among HIV-1 subtypes ranges between 25 and 35% at the nucleotide level and variation within subtypes vary from 15 to 20% [48, 49].
The HIV-1 subtype C PR that predominates in South Africa (C-SA PR) is defined as the consensus subtype C PR [51]. This C-SA PR contains eight polymorphic sites (T12S, I15V, L19I, M36I, R41K, H69K, L89M, and I93L) in relation to the wild-type subtype B HIV-1 PR [52].
The procedures followed were the same as reported before ^12,13.

[2] = 1H NMR, ref [19],[20], cited from earlier work
Method: It is therefore most likely that the lactam form is the active form in aqueous solution (also used for the IC50 experiments). The conformation for the amide side chain with the lowest energy was determined. In both cases this conformation involved intramolecular hydrogen bonding (O5 ...

SMILES	IC50 [1] [nM]	further results
CC[C@H](C)[C@H](NC(=O)[C@H](C)NC(=O)[C@H](CCC(=O)O)NC(=O)C12OC(=O)C3(O)C4C5CC(C6C5C3C61)C42)C(=O)N[C@@H](CO)C(N)=O (some centres unmarked) [PCU-lactone-CO-EAIS] (X2-EAIS-NH2)	850 ± 180	IC50 relative to the corresponding cage lactam peptide ([1]; C-SA HIV-1 protease): eleven times weaker
CC(=O)NC12NC(=O)C3(O)C4C5CC(C6C5C3C61)C42 (racemic) [PCU-lactam]		tautomer preference ([2]; (CD3)2SO): major tautomer
CC[C@H](C)[C@H](NC(=O)[C@H](C)NC(=O)[C@H](CCC(=O)O)NC(=O)C12OC(=O)C3(O)C4C5CC(C6C5C3C61)C42)C(N)=O (some centres unmarked) [PCU-lactone-CO-EAI]	2600	
CC(=O)NC12N=C(O)C3(O)C4C5CC(C6C5C3C61)C42 (racemic) [PCU-lactim]		tautomer preference ([2]; dioxane): dominant
CC[C@H](C)[C@H](NC(=O)[C@H](C)NC(=O)C12OC(=O)C3(O)C4C5CC(C6C5C3C61)C42)C(=O)N[C@@H](CO)C(N)=O (some centres unmarked) [PCU-lactone-CO-AIS]	830	
CC[C@H](C)[C@H](NC(=O)[C@@H](N)CO)C(=O)N[C@@H](C)C(=O)N[C@@H](CCC(=O)O)C(=O)NC12NC(=O)C3(O)C4C5CC(C6C5C3C61)C42 (some centres unmarked) [PCU-lactam-NH-EAIS] (H-SIAE-X1)	~78	
COC(=O)N[C@H](C(=O)N[C@@H](Cc1ccccc1)[C@@H](O)CN(Cc1ccc(-c2ccccn2)cc1)NC(=O)[C@@H](NC(=O)OC)C(C)(C)C)C(C)(C)C [Atazanavir, reference compound]	4 ± 0.71	

Source: article PMC4387594, “Pentacycloundecane lactam vs lactone norstatine type protease HIV inhibitors: binding energy calculations and DFT study” (Journal of Biomedical Science, 2015)
